Data set [1] concerns C6. Briefly: Cytotoxicity against rat C6 cells incubated for 48 hrs by MTT assay. Type of data set: functional, cell-based. The following applies: for pIC50: Rattus norvegicus, C6, 48 h, read-out: IC50; for IC50: c6.
Data set [2] can be described thus: Cytotoxicity against human U138MG cells incubated for 48 hrs by MTT assay. Type of data set: functional, cell-based, U138-MG. The following applies: for pIC50: Homo sapiens, U138-MG, 48 h, read-out: IC50; for IC50: u138-mg.
The next data set has as its system Hippocampus. Briefly: Toxicity in Wistar rat organotypic hippocampal cultures at 100 uM incubated for 48 hrs by propidium iodide incorporation assay. Type of data set: tissue-based.
Data set [3] deals with C6. Briefly: Induction of apoptotic cell death in rat C6 cells at 25 uM incubated for 24 hrs by Annexin V/PI staining based flow cytometry. Type of data set: functional.
The subject of data set [4] is C6. Description: Induction of apoptotic cell death in rat C6 cells at 50 uM incubated for 24 hrs by Annexin V/PI staining based flow cytometry. Type of data set: functional.
For data set [5], the system named is C6. Description: Induction of early apoptotic cell death in rat C6 cells at 100 uM incubated for 24 hrs by Annexin V/PI staining based flow cytometry. It counts as functional.

Experimental findings from ChEMBL document CHEMBL2086220, “Selective cytotoxicity and apoptosis induction in glioma cell lines by 5-oxygenated-6,7-methylenedioxycoumarins from Pterocaulon species” (Eur J Med Chem, 2012) are described below.

pIC50: −log10 of the molar value. Calls of active or inactive are those of the source. The calls are words filed in the database; no cut-off is given here.

Turning to `CC(C)=CCOc1c2c(cc3oc(=O)ccc13)OCO2`, the pIC50 is 4.11 with C6 [1] and 4.18 in data set [2].
For the molecule `COc1c2c(cc3oc(=O)ccc13)OCO2`, the Activity result in the data set on Hippocampus is “Non-toxic”. The result with C6 [3] and in the data set with C6 [4] was inactive. The negative logarithm of the IC50 (pIC50) in the data set on C6 [1] was 4.46; in data set [2], 4.50. Also, the result with C6 [5] was Active.
Take `CC(C)(O)C(O)COc1c2c(cc3oc(=O)ccc13)OCO2` (stereo not given): the pIC50 (in the data set on C6 [1]; in data set [2]) was 4.12 each time.
In the case of `O=c1ccc2ccccc2o1` [COUMARIN], the IC50 result (with C6 [1]; in data set [2]) was “Not Active” throughout.
Turning to `O=c1ccc2cc(O)c(O)cc2o1` [ESCULETIN], the IC50 entry (in the data set with C6 [1]; in data set [2]) was “Not Active” each time.
`O=c1ccc2cc(O[C@@H]3O[C@H](CO)[C@@H](O)[C@H](O)[C@H]3O)c(O)cc2o1` [ESCULIN]: the IC50 entry (in the data set on C6 [1]; in data set [2]) was “Not Active” each time.
As for `Cn1nnc2c(C(N)=O)ncn2c1=O` [TEMOZOLOMIDE], the pIC50 with C6 [1] is 4.47; in data set [2], 4.59.
Regarding `O=c1ccc2ccc(O)cc2o1` [UMBELLIFERONE], the IC50 entry (in the data set on C6 [1]; in data set [2]) was “Not Active” throughout.
